# Experimental data reported in patent publication US20130252247A1, “KIT FOR SCREENING FOR SKIN-ACTIVATING SUBSTANCES AND COMPRISING THE KLOTHO GENE, AND METHOD FOR SCREENING FOR SKIN-ACTIVATING SUBSTANCES USING THE SAME” (Amorepacific Corporation, priority 2011, published 2013).
# System: Klotho
# Experiment: Klotho expression in keratinocytes treated with retinoic acid and retinol, quantitative real-time PCR
# Assay type: cell-based, human
# Procedure: In order to examine whether Klotho protein is expressed in skin cells, primers of SEQ ID NOS: 1 and 2, which can amplify Klotho gene (NCBI accession No. NM-004795), were constructed. Then, RT-PCR was performed using the primer set and a probe of SEQ ID NO: 3 (TaqMan™ fluorogenic probe) in order to detect Klotho mRNA in the cDNA of keratinocytes (NHK), fibroblasts (NHF), NHM-promoblack (Normal Human Epidermal Melanocytes (NHEM) juvenile foreskin, Promocell: melanocytes derived from dark-skinned persons), NHM-DP (NHM-dark pigment, Invitrogen: melanocytes derived from dark-skinned persons) and NHM-MP (NHM-moderate pigment, Invitrogen: melanocytes derived from Asian). The PCR reaction was performed for 35 cycles, each consisting of denaturation at 94° C. for 30 sec, annealing at 55° C. for 30 sec, and extension at 72° C. for 60 sec. As a positive control, the cDNA of human embryonic kidney cells (HEK293) known to express Klotho gene was used.
# In order to examine the effects of retinoic acid and retinol (known as anti-aging substances) on the expression of Klotho in keratinocytes, quantitative real time PCR was performed under the same conditions as described in Test Example 1, and the expression levels of Klotho protein were examined at 2 days and 8 days after treatment of the cells with each of 0.1 μM and 1 μM of retinoic acid and 1 μM and 10 μM of retinol.
smiles,measurement,setting,value
CC1=C(/C=C/C(C)=C/C=C/C(C)=C/CO)C(C)(C)CCC1 [retinol],expression level of Klotho protein,"keratinocytes, 8 days after treatment, 0.1 μM and 1 μM retinoic acid, 1 μM and 10 μM retinol, FIG. 3",significantly increased
same,expression of Klotho protein,"summary statement, found using the kit",increased
